According to patent US20100234372A1, “SUBSTITUTED 2-MERCAPTOQUINOLINE-3-CARBOXAMIDES AS KCNQ2/3 MODULATORS” (GRUNENTHAL GMBH, priority 2009, published 2010):

Experiments:
KCNQ2/3 channels = target: T1, KCNQ2/3 channels (Homo sapiens, UniProt O43525+O43526); assay: Fluorescence assay using a voltage-sensitive dye (fluorimetry); format: cell-based; settings: for EC50: CHO-K1 cells expressing KCNQ2/3 channels; for Emax at 1 µM: 50 μM retigabine = 100%, CHO-K1 cells expressing KCNQ2/3, read-out: Fluorimetry % efficacy at 1 μM (50 μM retigabine = 100%)
T1 construct: expressed in transfected cells; host or cells: CHO-K1 cells
Experimental: […] CHO-K1 cells expressing KCNQ2/3 channels are cultivated adherently at 37° C., 5% CO2 and 95% humidity in cell culture bottles (e.g. 80 cm^2 TC flasks, Nunc) with DMEM-high glucose (Sigma Aldrich, D7777) including 10% FCS (PAN Biotech, e.g. 3302-P270521) or alternatively MEM Alpha Medium (1×, liquid, Invitrogen, #22571), 10% foetal calf serum (FCS) (Invitrogen, #10270-106, heat-inactivated) and the necessary selection antibiotics.
Before being seeded out for the measurements, the cells are washed with a 1×DPBS buffer without Ca^2+/Mg^2+ (e.g. Invitrogen, #14190-094) and detached from the bottom of the culture vessel by means of Accutase (PAA Laboratories, #L11-007) (incubation with Accutase for 15 min at 37° C.). The cell count then present is determined using a CASY™ cell counter (TCC model, Scharfe System) in order subsequently to apply 20,000 to 30,000 cells/well/100 μl of the described nutrient medium, depending on density optimisation for the individual cell line, to 96-well measuring plates of the Corning™ CeIIBIND™ type (flat clear-bottom black polystyrene microplates, #3340). Incubation is then carried out for one hour at room temperature, without gassing or adjusting the humidity, followed by incubation for 24 hours at 37° C., 5% CO2 and 95% humidity.
The voltage-sensitive fluorescent dye from the Membrane Potential Assay Kit (Red™ bulk format part R8123 for FLIPR, MDS Analytical Technologies™) is prepared by dissolving the contents of a vessel of Membrane Potential Assay Kit Red Component A in 200 ml of extracellular buffer (ES buffer, 120 mM NaCl, 1 mM KCl, 10 mM HEPES, 2 mM CaCl2, 2 mM MgCl2, 10 mM glucose; pH 7.4). After removal of the nutrient medium, the cells are washed with 200 μl of ES buffer, then covered with a layer of 100 μl of the dye solution prepared above and incubated for 45 min at room temperature with exclusion of light.
The fluorescence measurements are carried out with a BMG Labtech FLUOstar™, BMG Labtech NOVOstar™ or BMG Labtech POLARstar™ instrument (525 nm excitation, 560 nm emission, bottom-read mode). After incubation of the dye, 50 μl of the substances to be tested in the desired concentrations, or 50 μl of ES buffer for control purposes, are introduced into separate cavities of the measuring plate and incubated for 30 min at room temperature whilst being shielded from light. The fluorescence intensity of the dye is then measured for 5 min and the fluorescence value F1 of each well is thus determined at a given, constant time. 15 μl of a […] KCl solution ([…]) are then added to each well. The change in fluorescence is subsequently measured until all relevant measured values have been obtained (mainly 5-30 min). At a given time after KCl application, a fluorescence value F2 is determined, in this case at the time of the fluorescence peak.
For calculation, the fluorescence intensity F2 is compared with the fluorescence intensity F1, and the agonistic activity of the target compound on the potassium channel is determined therefrom. F2 and F1 are calculated as follows: […]
is determined by adding to the reaction batch only the buffer solution instead of the substance to be tested, determining the value F1K of the fluorescence intensity, adding the potassium ions as described above and measuring a value F2K of the fluorescence intensity. Then F2K and F1K are calculated as follows: […]
Calculations of EC50 values are carried out with the aid of Prism v4.0 software (GraphPad Software™).

Male Sprague-Dawley rats = assay: Low-intensity tail flick in rats; format: in vivo; settings: po, rat
Excerpt: The antinociceptive activity of the test substance against an acute noxic thermal stimulant was examined in the tail-flick test in rats using the method described by D′Amour and Smith (J. Pharm. Exp. Ther. 72, 74 79 (1941)). Male Sprague-Dawley rats weighing between 200 and 250 g were used (breeder: Janvier, Le Genest St. Isle, France). The animals were placed in special test compartments and the base of the tail was exposed to a focused light beam from an analgesia meter (model 2011, Rhema Labortechnik, Hofheim, Germany). 10 animals were used per group. Before administering a substance according to the invention, the tail-flick latency (time from switching on the light beam to the flick of the tail) was measured twice at an interval of five minutes and the average was defined as the control latency time. The intensity of the light beam was chosen so that the control latency time was 7 to 9 seconds.
The measurement of the tail-flick latency was then repeated 10, 20, 30 and 60 minutes after peroral administration of the substance. The antinociceptive action of the test substance was determined as the increase in the tail-flick latency time using the following formula:
where T0=control latency time before administration of the substance, T1=latency time after administration of the substance, T2=maximum exposure time to the light beam (30 seconds), MPE=maximum possible effect.
Analysis of variance (repeated measures ANOVA) was used to test for statistically significant differences between the substance and vehicle group. The significance level was set at ≦0.05.

[1] = p.o., MPE, read-out: Low-intensity tail flick rat p.o. % effect (dose [mg/kg])

Row | EC50 (KCNQ2/3 channels) | Emax at 1 µM (KCNQ2/3 channels) | Compound | inhibition in vivo at 21.5 mg/kg (Male Sprague-Dawley rats; [1]) | inhibition in vivo at 10 mg/kg (Male Sprague-Dawley rats; [1]) | ED50 (Male Sprague-Dawley rats) | inhibition in vivo at 4.64 mg/kg (Male Sprague-Dawley rats; p.o., dose 4.64 mg/kg, MPE, read-out: Low-intensity tail flick rat p.o. % effect (dose [mg/kg]))
1 | 291 nM | 223% | CCSc1nc2cc(C(F)(F)F)ccc2cc1C(=O)NCc1cccs1 [compound 14] | 9% |  |  | 
2 | 82 nM | 141% | CCSc1nc2cc(C(F)(F)F)ccc2c(C)c1C(=O)NCc1cccs1 [compound 30, 2-Ethylsulfanyl-4-methyl-N-(thiophen-2-yl-methyl)-7-(trifluoromethyl)-quinoline-3-carboxamide] |  | 31% |  | 
3 | 85 nM | 121% | CCSc1nc2cc(C(F)(F)F)ccc2c(C)c1C(=O)NCCC(C)C [compound 37] |  | 0% |  | 
4 | 1690 nM | 175% | CCSc1nc2cc(C(F)(F)F)ccc2c(C)c1C(=O)NCc1cccnc1 [compound 42] | 51% |  |  | 
5 | 92 nM | 182% | CCSc1nc2cc(C(F)(F)F)ccc2c(C)c1C(=O)NCc1cccc(F)c1 [compound 76] |  |  | 6.3 mg/kg | 
6 | 105 nM | 137% | CCSc1nc2cc(C(F)(F)F)ccc2c(C)c1C(=O)NCc1ccc(F)cc1 [compound 77] |  | 37% |  | 
7 | 64 nM | 220% | Cc1c(C(=O)NCc2cccs2)c(SC(C)(C)C)nc2cc(C(F)(F)F)ccc12 [compound 89] |  |  | 2.7 mg/kg | 
8 | 54 nM | 162% | Cc1c(C(=O)NCc2ccc(F)cc2)c(SC(C)(C)C)nc2cc(C(F)(F)F)ccc12 [compound 94] |  |  |  | 71%
9 | 187 nM | 144% | CCSc1nc2cc(F)c(F)cc2c(C)c1C(=O)NCc1ccc(F)cc1 [compound 109] |  | 7% |  | 
10 | 130 nM | 211% | CCSc1nc2cc(C(F)(F)F)ccc2c(C)c1C(=O)NCc1ccccc1O [compound 112, 2-Ethylsulfanyl-N-[(2-hydroxyphenyl)-methyl]-4-methyl-7-(trifluoromethyl)-quinoline-3-carboxamide] |  | 17% |  | 
11 |  | 39% | CCSc1nc2ccc(O)cc2c(C)c1C(=O)NCc1cccc(F)c1 [compound 128] |  |  |  | 
12 |  | 12% | CCSc1nc2cc(O)ccc2c(C)c1C(=O)NCc1cccc(F)c1 [compound 129] |  |  |  | 
13 | 58 nM | 180% | CCSc1nc2cc(C(F)(F)F)ccc2c(OC)c1C(=O)NCc1cccc(F)c1 [compound 130, 2-Ethylsulfanyl-N-[(3-fluorophenyl)-methyl]-4-methoxy-7-(trifluoromethyl)-quinoline-3-carboxamide] |  |  |  | 
14 | 1820 nM | 104% | CCSc1nc2cc(C(F)(F)F)ccc2c(N(C)C)c1C(=O)NCc1cccc(F)c1 [compound 131, 4-Dimethylamino-2-ethylsulfanyl-N-[(3-fluorophenyl)-methyl]-7-(trifluoromethyl)-quinoline-3-carboxamide] |  |  |  | 
15 | 51 nM | 161% | CCSc1nc2cc(OC(F)(F)F)ccc2c(C)c1C(=O)NCc1ccc(F)cc1 [compound 132, 2-Ethylsulfanyl-N-[(4-fluorophenyl)-methyl]-4-methyl-7-(trifluoromethyloxy)-quinoline-3-carboxamide] |  |  |  | 
16 |  | 15% | CCSc1nc2cc(N(C)C)ccc2c(C)c1C(=O)NCc1ccc(F)cc1 [compound 133] |  |  |  | 
17 |  | 21% | CCSc1nc2cc(N3CCOCC3)ccc2c(C)c1C(=O)NCc1cccc(F)c1 [compound 134] |  |  |  | 
18 |  | 6% | CCSc1nc2cc(N3CCOCC3)ccc2c(C)c1C(=O)NCc1ccc(F)cc1 [compound 135] |  |  |  | 
19 | 227 nM | 164% | CCSc1nc2c(C(F)(F)F)cccc2c(C)c1C(=O)NCc1cccc(F)c1 [compound 136] |  |  |  | 
20 | 225 nM | 166% | CCSc1nc2c(C(F)(F)F)cccc2c(C)c1C(=O)NCc1ccc(F)cc1 [compound 137] |  |  |  | 
21 | 2240 nM | 91% | CCSc1nc2c(OC)cccc2c(C)c1C(=O)NCc1cccc(F)c1 [compound 138] |  |  |  | 
22 | 1960 nM | 91% | CCSc1nc2c(OC)cccc2c(C)c1C(=O)NCc1ccc(F)cc1 [compound 139] |  |  |  | 
23 | 1150 nM | 101% | CCSc1nc2c(O)cccc2c(C)c1C(=O)NCc1cccc(F)c1 [compound 140] |  |  |  | 
